Columns and labels:
Type in all cases: in vivo
[1] = tested on: blackgrass (Alopecurus myosuroides); assay: Test A greenhouse herbicide test, postemergence
Summary of the method: (§1)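 Seedlings in a loam soil and sand mix received formulated compound postemergence at the one- to two-leaf stage. Greenhouse holding lasts approximately 10 d, then injury is scored visually relative to untreated plants, 0 meaning no effect and 100 complete control.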

[2] = tested on: galium (catchweed bedstraw, Galium aparine); assay: Test A greenhouse herbicide test, postemergence
Summary of the method: as §1

corn (Zea mays) = assay: Test A greenhouse herbicide test, pre- and postemergence; conditions: Postemergence
Summary of the method: (§2)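 Visual injury ratings, 0 (no effect) to 100 (complete control), versus untreated plants after roughly 10 d in a greenhouse. Compounds, formulated in a surfactant-containing non-phytotoxic solvent, were sprayed on loam–sand soil after sowing (pre) or on one- to two-leaf plants 2–10 cm tall (post).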

[3] = tested on: pigweed (Amaranthus retroflexus); assay: as above
Summary of the method: as §2

[4] = tested on: foxtail, giant (giant foxtail, Setaria faberii); assay: as above
Summary of the method: as §2

[5] = tested on: ryegrass, Italian (Italian ryegrass, Lolium multiflorum); assay: as above
Summary of the method: as §2

kochia (Kochia scoparia) [6] = assay: as above
Summary of the method: as §2

[7] = tested on: wheat (Triticum aestivum); assay: as above; conditions: Postemergence
Summary of the method: as §2

[8] = tested on: ragweed (common ragweed, Ambrosia elatior); assay: as above
Summary of the method: as §2

[9] = tested on: barnyardgrass (Echinochloa crus-galli); assay: as above
Summary of the method: as §2

[10] = tested on: oat, wild (wild oat, Avena fatua); assay: Test C greenhouse herbicide test, postemergence
Summary of the method: (§3)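 Greenhouse postemergence spray on plants 2–18 cm tall; response judged visually after 13–15 d relative to untreated controls using a 0 (none) to 100 (full control) scale.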

kochia (Kochia scoparia) [11] = assay: Test C greenhouse herbicide test, postemergence
Summary of the method: as §3

[12] = 125 g ai/ha, 0 to 100 scale where 0 is no effect and 100 is complete control
[13] = 500 g ai/ha, 0 to 100 scale, 0 is no effect, 100 is complete control
[14] = Postemergence, 125 g ai/ha, 0 to 100 scale where 0 is no effect and 100 is complete control
[15] = Postemergence, 500 g ai/ha, 0 to 100 scale, 0 is no effect, 100 is complete control
[16] = Preemergence, 125 g ai/ha, 0 to 100 scale where 0 is no effect and 100 is complete control
[17] = Preemergence, 500 g ai/ha, 0 to 100 scale, 0 no effect, 100 complete control
[18] = Postemergence, 31 g ai/ha, 0 to 100 scale (0 no effect, 100 complete control)
[19] = Postemergence, 125 g ai/ha, scale 0 to 100, 0 is no effect, 100 is complete control
[20] = Postemergence, 250 g ai/ha, scale 0 to 100, 0 no effect, 100 complete control, 13 to 15 d
[21] = postemergence, 62 g ai/ha, scale 0 to 100, 0 no effect, 100 complete control
[22] = 125 g ai/ha, 0 to 100 scale, 0 no effect, 100 complete control
[23] = 500 g ai/ha, visual rating after approx. 10 d, 0 to 100 scale (0 no effect, 100 complete control)
[24] = Postemergence, 125 g ai/ha, 0 to 100 scale, 0 no effect, 100 complete control
[25] = Postemergence, 500 g ai/ha, visual rating after approx. 10 d, 0 to 100 scale (0 no effect, 100 complete control)
[26] = Preemergence, 125 g ai/ha, visual injury rating, 0 to 100 scale (0 no effect, 100 complete control), approx. 10 d
[27] = Preemergence, 500 g ai/ha, 0 to 100 scale where 0 is no effect and 100 is complete control
[28] = Postemergence, 31 g ai/ha, scale 0 to 100 (0 no effect, 100 complete control)
[29] = Postemergence, 62 g ai/ha, 0 to 100 scale (0 no effect, 100 complete control)
[30] = postemergence, 125 g ai/ha, scale 0 to 100, 0 no effect, 100 complete control

Cc1ccc2ccccc2c1-c1c(O)cnn(C)c1=O [Compound 56]
Plant response rating, Blackgrass [1, 12]: 30 | Blackgrass plant response rating [1, 13]: 50 | Plant response rating, Galium [2, 12]: 90 | Galium plant response rating [2, 13]: 100 | Plant response rating, Corn (corn (Zea mays); [12]): 0 | Corn plant response rating (corn (Zea mays); [13]): 10 | Plant response rating, Pigweed [3, 14]: 80 | Pigweed plant response rating [3, 15]: 90 | Pigweed plant response rating [3, 16]: 60 | Plant response rating, Pigweed [3, 17]: 100 | Plant response rating, Foxtail, Giant [4, 14]: 20 | Foxtail, Giant plant response rating [4, 15]: 60 | Foxtail, Giant plant response rating [4, 16]: 30 | Plant response rating, Foxtail, Giant [4, 17]: 70 | Plant response rating, Ryegrass, Italian [5, 14]: 90 | Ryegrass, Italian plant response rating [5, 15]: 100 | Ryegrass, Italian plant response rating [5, 16]: 100 | Plant response rating, Ryegrass, Italian [5, 17]: 100 | Plant response rating, Kochia (kochia (Kochia scoparia) [6]; [14]): 90 | Kochia plant response rating (kochia (Kochia scoparia) [6]; [15]): 100 | Kochia plant response rating (kochia (Kochia scoparia) [6]; [16]): 40 | Plant response rating, Kochia (kochia (Kochia scoparia) [6]; [17]): 90 | Plant response rating, Wheat [7, 12]: 10 | Wheat plant response rating [7, 13]: 50 | Plant response rating, Ragweed [8, 14]: 70 | Ragweed plant response rating [8, 15]: 90 | Ragweed plant response rating [8, 16]: 80 | Plant response rating, Ragweed [8, 17]: 90 | Plant response rating, Barnyardgrass [9, 14]: 10 | Barnyardgrass plant response rating [9, 15]: 60 | Barnyardgrass plant response rating [9, 16]: 10 | Plant response rating, Barnyardgrass [9, 17]: 50 | Oat, Wild plant response rating [10, 18]: 5 | Plant response rating, Oat, Wild [10, 19]: 20 | Plant response rating, Oat, Wild [10, 20]: 40 | Oat, Wild plant response rating [10, 21]: 10 | Kochia plant response rating (kochia (Kochia scoparia) [11]; [18]): 70 | Plant response rating, Kochia (kochia (Kochia scoparia) [11]; [19]): 90 | Plant response rating, Kochia (kochia (Kochia scoparia) [11]; [20]): 100 | Kochia plant response rating (kochia (Kochia scoparia) [11]; [21]): 90

CC(=O)Oc1c(C)nn(C)c(=O)c1-c1c(C)cc(C)c2ccccc12 [Compound 153]
Plant response rating, Blackgrass [1, 22]: 90 | Plant response rating, Blackgrass [1, 23]: 90 | Plant response rating, Galium [2, 22]: 100 | Plant response rating, Galium [2, 23]: 100 | Plant response rating, Corn (corn (Zea mays); [22]): 0 | Plant response rating, Corn (corn (Zea mays); [23]): 80 | Plant response rating, Pigweed [3, 24]: 80 | Plant response rating, Pigweed [3, 25]: 100 | Plant response rating, Pigweed [3, 26]: 100 | Plant response rating, Pigweed [3, 27]: 100 | Plant response rating, Foxtail, Giant [4, 24]: 90 | Plant response rating, Foxtail, Giant [4, 25]: 90 | Plant response rating, Foxtail, Giant [4, 26]: 100 | Plant response rating, Foxtail, Giant [4, 27]: 100 | Plant response rating, Ryegrass, Italian [5, 24]: 100 | Plant response rating, Ryegrass, Italian [5, 25]: 100 | Plant response rating, Ryegrass, Italian [5, 26]: 100 | Plant response rating, Ryegrass, Italian [5, 27]: 100 | Plant response rating, Kochia (kochia (Kochia scoparia) [6]; [24]): 40 | Plant response rating, Kochia (kochia (Kochia scoparia) [6]; [25]): 90 | Plant response rating, Kochia (kochia (Kochia scoparia) [6]; [26]): 80 | Plant response rating, Kochia (kochia (Kochia scoparia) [6]; [27]): 90 | Plant response rating, Wheat [7, 22]: 0 | Plant response rating, Wheat [7, 23]: 30 | Plant response rating, Ragweed [8, 24]: 80 | Plant response rating, Ragweed [8, 25]: 90 | Plant response rating, Ragweed [8, 26]: 80 | Plant response rating, Ragweed [8, 27]: 90 | Plant response rating, Barnyardgrass [9, 24]: 90 | Plant response rating, Barnyardgrass [9, 25]: 90 | Plant response rating, Barnyardgrass [9, 26]: 100 | Plant response rating, Barnyardgrass [9, 27]: 100 | Plant response rating, Oat, Wild [10, 28]: 90 | Oat, Wild plant response rating [10, 29]: 95 | Plant response rating, Oat, Wild [10, 20]: 95 | Oat, Wild plant response rating [10, 30]: 95 | Plant response rating, Kochia (kochia (Kochia scoparia) [11]; [28]): 40 | Kochia plant response rating (kochia (Kochia scoparia) [11]; [29]): 70 | Plant response rating, Kochia (kochia (Kochia scoparia) [11]; [20]): 85 | Kochia plant response rating (kochia (Kochia scoparia) [11]; [30]): 80

Cc1nn(C)c(=O)c(-c2ccc(F)c3ccccc23)c1OC(=O)CC(F)(F)F [Compound 123]
Plant response rating, Blackgrass [1, 12]: 30 | Plant response rating, Blackgrass [1, 23]: 50 | Plant response rating, Galium [2, 12]: 80 | Plant response rating, Galium [2, 23]: 90 | Plant response rating, Corn (corn (Zea mays); [12]): 0 | Plant response rating, Corn (corn (Zea mays); [23]): 20 | Plant response rating, Pigweed [3, 14]: 60 | Plant response rating, Pigweed [3, 25]: 70 | Pigweed plant response rating [3, 16]: 100 | Plant response rating, Pigweed [3, 27]: 100 | Plant response rating, Foxtail, Giant [4, 14]: 50 | Plant response rating, Foxtail, Giant [4, 25]: 60 | Foxtail, Giant plant response rating [4, 16]: 70 | Plant response rating, Foxtail, Giant [4, 27]: 70 | Plant response rating, Ryegrass, Italian [5, 14]: 90 | Plant response rating, Ryegrass, Italian [5, 25]: 100 | Ryegrass, Italian plant response rating [5, 16]: 90 | Plant response rating, Ryegrass, Italian [5, 27]: 100 | Plant response rating, Kochia (kochia (Kochia scoparia) [6]; [14]): 70 | Plant response rating, Kochia (kochia (Kochia scoparia) [6]; [25]): 70 | Kochia plant response rating (kochia (Kochia scoparia) [6]; [16]): 50 | Plant response rating, Kochia (kochia (Kochia scoparia) [6]; [27]): 100 | Plant response rating, Wheat [7, 12]: 0 | Plant response rating, Wheat [7, 23]: 20 | Plant response rating, Ragweed [8, 14]: 50 | Plant response rating, Ragweed [8, 25]: 90 | Ragweed plant response rating [8, 16]: 60 | Plant response rating, Ragweed [8, 27]: 70 | Plant response rating, Barnyardgrass [9, 14]: 40 | Plant response rating, Barnyardgrass [9, 25]: 70 | Barnyardgrass plant response rating [9, 16]: 0 | Plant response rating, Barnyardgrass [9, 27]: 80 | Plant response rating, Oat, Wild [10, 28]: 70 | Plant response rating, Oat, Wild [10, 19]: 90 | Plant response rating, Oat, Wild [10, 20]: 95 | Plant response rating, Kochia (kochia (Kochia scoparia) [11]; [28]): 95 | Plant response rating, Kochia (kochia (Kochia scoparia) [11]; [19]): 95 | Plant response rating, Kochia (kochia (Kochia scoparia) [11]; [20]): 98

Source: patent US10597388B2, “Pyridazinone herbicides” (FMC CORPORATION, priority 2014, dated 2020)
